{
  "source": "patent US10478440B2",
  "about": "“Pharmaceutical compositions for inhibiting angiogenesis comprising plant-derived natural compound” (INDUSTRY-ACADEMIC COOPERATION FOUNDATION, YONSEI UNIVERSITY, priority 2011, dated 2019)",
  "key": {"HUVECs [1]": {"system": "HUVECs", "assay": "Nicotine-induced endothelial cell invasion", "format": "cell-based, human", "conditions": "nicotine 10 nM", "description": "Serum-starved HUVECs were stimulated by nicotine (10 nM) in the presence or absence of voacangine. […] The basal level capillary tube formation (a) and invasiveness (b) of HUVECs that remained in serum-free media were normalized to 100%. To examine the invasiveness of HUVECs in vitro, we used a Transwell chamber system with 8.0-μm pore polycarbonate filter inserts. Briefly, the lower side of the filter was coated with gelatin (10 μL, 1 mg/mL) and the upper side was coated with Matrigel (10 μL, 3 mg/mL). […] The chamber was incubated at 37° C. for 18 h, and then the cells were fixed with 70% methanol and stained with hematoxylin and eosin. The invasiveness of cells was measured by counting the number of whole cells in the lower side of the filter using a microscope at 100× magnification, and cells were photographed at 100× magnification."}, "HUVECs [2]": {"system": "HUVECs", "assay": "Nicotine-induced tube formation of HUVECs", "format": "cell-based, human", "conditions": "nicotine 10 nM", "description": "Serum-starved HUVECs were stimulated by nicotine (10 nM) in the presence or absence of voacangine. […] The basal level capillary tube formation (a) and invasiveness (b) of HUVECs that remained in serum-free media were normalized to 100%. Matrigel (10 mg/mL) was used to coat a 48-well plate and allowed to polymerize for 1 h at 37° C. HUVECs (6×10^4 cells) were seeded on the surface of the Matrigel, and then test compounds were added for 4-16 h at 37° C. in the presence or absence of VEGF (30 ng/mL). Morphological changes in the cells and formation of tubular structures were observed under a microscope (IX71, Olympus) and photographed at 100× magnification (DP70, Olympus)."}, "HUVECs [3]": {"system": "HUVECs", "assay": "Capillary tube formation assay (VEGF-induced)", "format": "cell-based, human", "conditions": "VEGF 30 ng/mL, serum-starved HUVECs", "description": "Matrigel (10 mg/mL) was used to coat a 48-well plate and allowed to polymerize for 1 h at 37° C. HUVECs (6×10^4 cells) were seeded on the surface of the Matrigel, and then test compounds were added for 4-16 h at 37° C. in the presence or absence of VEGF (30 ng/mL). Morphological changes in the cells and formation of tubular structures were observed under a microscope (IX71, Olympus) and photographed at 100× magnification (DP70, Olympus)."}, "HIF-1α": {"system": "HIF-1α", "assay": "Western blot of HIF-1α under hypoxic conditions", "format": "cell-based, human", "conditions": "HepG2 cells during hypoxia", "description": "The cell lysates were separated by 10% SDS-PAGE, followed by transfer to PVDF membranes (Millipore, Bedford, Mass.) using standard electroblotting procedures. Blots were then blocked and immunolabeled overnight at 4° C. with primary antibodies, including anti-HIF-1α and anti-tubulin antibodies. Immunolabeling was detected by an enhanced chemiluminescence (ECL) kit (GE Healthcare, Buckinghamshire, UK) according to the manufacturer's instructions. For hypoxic conditions, cells were incubated at 5% CO2 with 1% O2 balanced with N2 in an anaerobic chamber (Forma)."}, "HepG2": {"system": "HepG2", "assay": "MTT cell proliferation assay, HepG2", "format": "cell-based", "conditions": "Homo sapiens; HepG2, cancer cells", "description": "(§1) Human umbilical vascular endothelial cells (HUVECs) were grown for 7-11 passages in EGM-2 medium supplemented with 10% FBS. HepG2 (human liver carcinoma) cells were grown in RPMI 1640 containing 10% FBS and 1% antibiotics. All cell lines were maintained at 37° C. in a humidified 5% CO2 incubator. Cell proliferation was measured using a 3-(4,5-dimethylthiazol-2-yl)-2,5-diphenyltetrazolium bromide (MTT) colorimetric assay, and cell viability was assessed using Trypan blue staining."}, "[4]": {"system": "chick embryo chorioallantoic membrane (CAM)", "assay": "Chorioallantoic membrane (CAM) assay", "format": "in vivo, chicken", "description": "The CAM assay was performed as described previously. Fertilized chicken eggs were kept in a humidified incubator at 37° C. for 3 days. Approximately 2-3 mL of egg albumin was removed with a hypodermic needle, allowing the CAM and yolk sac to drop away from the shell membrane. […] After further incubation for 2 days, 2-3 mL of Intralipose (Greencross Co, Suwon, Korea) was injected beneath the CAM and the membrane was observed under a microscope. Retinoic acid (RA) was used as a positive control."}, "HUVECs [5]": {"system": "HUVECs", "assay": "In vitro tumor cell-induced angiogenesis assay (combinated-chemoinvasion assay)", "format": "cell-based, human", "conditions": "HepG2 in lower chamber, without VEGF", "description": "To examine the invasive activity of […], a Transwell chamber system with 8.0-μm pore polycarbonate filter inserts was used. Briefly, the lower side of the filter was coated with gelatin (10 μL, 1 mg/mL) and the upper side was coated with Matrigel (10 μL, 3 mg/mL). Next, tumor cell HepG2 was added to the lower chamber. Test compounds were added to the lower chamber without VEGF and HUVECs (7×10^5 cells) were placed in the upper chamber of the filter. The chamber was incubated at 37° C. for 18 h, and then the cells were fixed with 70% methanol and stained with hematoxylin and eosin. Invasiveness was measured by counting the number of whole cells on the lower side of the filter using a microscope at 100× magnification, and cells were photographed at 100× magnification."}, "VEGF": {"system": "VEGF", "assay": "Measurement of VEGF by ELISA", "format": "cell-based, human", "conditions": "HepG2 cells", "description": "The VEGF concentration in media from voacangine-treated cells was determined using a VEGF Immunoassay kit (R&D Systems, Minneapolis, Minn.) according to the manufacturer's instructions. The results were expressed as concentration of VEGF relative to the total amount of VEGF from each well."}, "HUVECs [6]": {"system": "HUVECs", "assay": "MTT cell proliferation assay, HUVECs", "format": "cell-based, human", "description": "as §1"}, "HeLa": {"system": "HeLa", "assay": "MTT cell proliferation assay, HeLa", "format": "cell-based", "conditions": "Homo sapiens, cancer cells"}, "CHANG": {"system": "CHANG", "assay": "MTT cell proliferation assay, CHANG", "format": "cell-based", "conditions": "normal cells"}, "HUVECs [7]": {"system": "HUVECs", "assay": "Chemoinvasion assay (VEGF-induced)", "format": "cell-based, human", "conditions": "VEGF 30 ng/mL, serum-starved HUVECs", "description": "To examine the invasiveness of HUVECs in vitro, we used a Transwell chamber system with 8.0-μm pore polycarbonate filter inserts. Briefly, the lower side of the filter was coated with gelatin (10 μL, 1 mg/mL) and the upper side was coated with Matrigel (10 μL, 3 mg/mL). Test compounds were added to the lower chamber in the presence of VEGF (30 ng/mL), and HUVECs (7×10^5 cells) were placed in the upper chamber of the filter. The chamber was incubated at 37° C. for 18 h, and then the cells were fixed with 70% methanol and stained with hematoxylin and eosin. The invasiveness of cells was measured by counting the number of whole cells in the lower side of the filter using a microscope at 100× magnification, and cells were photographed at 100× magnification."}, "capsaicin contraction": {"system": "capsaicin contraction", "conditions": "literature [9]; cited from earlier work"}, "HT1080": {"system": "HT1080", "assay": "MTT cell proliferation assay, HT1080", "format": "cell-based", "conditions": "Homo sapiens, HT-1080; HT1080, cancer cells"}, "HUVECs [8]": {"system": "HUVECs", "assay": "Trypan blue cell viability", "conditions": "doses up to 20 μM for 3 days"}},
  "data": [
    {"smiles": "CN1CCCC1c1cccnc1", "note": "(stereo not drawn) [nicotine, reference compound]", "values": [
      {"measurement": "increase of cell invasion activity", "setting": "HUVECs [1]; serum-starved HUVECs", "result": 2.0, "unit": "fold"},
      {"measurement": "increase of angiogenesis (tube formation) activity", "setting": "HUVECs [2]; serum-starved HUVECs", "result": 2.5, "unit": "fold"}
    ]},
    {"smiles": "CC[C@H]1C[C@@H]2CN3CCc4c([nH]c5ccc(OC)cc45)[C@](C(=O)OC)(C2)C13", "note": "[voacangine, 12-methoxyibogamine-18-carboxylic acid methyl ester]", "values": [
      {"measurement": "VEGF-induced tube formation", "setting": "HUVECs [3]", "result": "inhibited VEGF-induced tube formation in a dose-dependent manner"},
      {"measurement": "expression level of HIF-1α", "setting": "HIF-1α", "result": "dose-dependently reduced"},
      {"measurement": "synthesis of cyclin D1 and tubulin", "setting": "HIF-1α; Western blot", "result": "without inhibiting the synthesis of other proteins"},
      {"measurement": "nicotine-induced invasion of HUVECs", "setting": "HUVECs [1]", "result": "inhibit nicotine-induced angiogenesis and invasion of HUVECs in a dose-dependent manner"},
      {"measurement": "IC50", "setting": "HepG2", "result": 42, "unit": "µM"},
      {"measurement": "nicotine-induced angiogenesis (tube formation)", "setting": "HUVECs [2]", "result": "inhibit nicotine-induced angiogenesis"},
      {"measurement": "capillary formation during CAM development", "setting": "[4]; 2 and 4 μg/egg, 2 days", "result": "dose-dependently inhibited capillary formation"},
      {"measurement": "signs of thrombosis or hemorrhage in CAM", "setting": "[4]; 2 days treatment", "result": "no apparent signs of thrombosis or hemorrhage"},
      {"measurement": "tumor cell-induced invasiveness of HUVECs by hypoxia", "setting": "HUVECs [5]", "result": "dose-dependently inhibited"},
      {"measurement": "hypoxia-induced expression of VEGF", "setting": "VEGF", "result": "inhibited the hypoxia-induced expression of VEGF"},
      {"measurement": "cell growth", "setting": "HUVECs [6]; 10 μM, 3 days, MTT", "result": "inhibited cell growth"},
      {"measurement": "IC50", "setting": "HUVECs [6]; Homo sapiens, HUVEC, HUVECs, normal cells", "result": 18, "unit": "µM"},
      {"measurement": "growth inhibition on HUVECs versus other cell lines", "setting": "HUVECs [6]; compared with other normal and cancer cell lines (Table 1)", "result": "greater growth inhibition effect on HUVECs than on other normal and cancer cell lines"},
      {"measurement": "IC50", "setting": "HeLa", "result": 23, "unit": "µM"},
      {"measurement": "IC50", "setting": "CHANG", "result": 26, "unit": "µM"},
      {"measurement": "VEGF-induced invasiveness of HUVECs", "setting": "HUVECs [7]", "result": "inhibited the VEGF-induced enhanced invasiveness of HUVECs in a dose-dependent manner"},
      {"measurement": "capsaicin contraction", "setting": "capsaicin contraction", "result": "inhibit capsaicin contraction in a dose-dependent manner"},
      {"measurement": "IC50", "setting": "HT1080", "result": 33, "unit": "µM"},
      {"measurement": "cytotoxicity on HUVECs (trypan blue exclusion)", "setting": "HUVECs [8]", "result": "no cytotoxicity"}
    ]}
  ]
}
